Among the data in US8987250B2 (Gilead Sciences, Inc., priority 2012, dated 2015) are EC50 values, retold here.

The assay concerns HIV-IIIb. Kind of assay: Test A: Antiviral Assay in MT4 Cells. The format is cell-based. The conditions noted are these: Human immunodeficiency virus 1, IIIB, MT4, 120 h. Put shortly:
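MT-4 cells pre-infected with HIV-IIIb (0.004 m.o.i.) at 37 °C, then exposed to 3-fold serial compound dilutions (10 concentrations, quadruplicate) in RPMI 1640/10% FBS. After 5 days at 37 °C, viability read by CellTiter-Glo luminescence.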

[1] abbreviates: Table 2, MT-4 cells infected with HIV-IIIb, 5 days of incubation, CellTiter-Glo, read-out: EC50.

Molecules are shown by their SMILES. Read-outs that look alike come from different tables or passages of the source.

Broadly, the EC50 is the concentration needed to bring the measured effect to its halfway point. In the case of `Cc1cc2nc(-c3ccc4c(c3)c(C)nn4Cc3ccccc3)sc2c(-c2ccc(Cl)cc2)c1[C@H](OC(C)(C)C)C(=O)O` [Compound 314, (S)-2-(2-(1-benzyl-3-methyl-1H-indazol-5-yl)-7-(4-chlorophenyl)-5-methylbenzo[d]thiazol-6-yl)-2-tert-butoxyacetic acid], the EC50 under setting [1] is 42 nM. The same measure, in the same setting: then `Cc1cc2nc(-c3ccc4nn(Cc5ccccc5)c(C)c4c3)sc2c(-c2ccc(Cl)cc2)c1[C@H](OC(C)(C)C)C(=O)O` [Compound 315, (S)-2-(2-(2-benzyl-3-methyl-2H-indazol-5-yl)-7-(4-chlorophenyl)-5-methylbenzo[d]thiazol-6-yl)-2-tert-butoxyacetic acid], with 34 nM; and `Cc1cc2nc(-c3ccc4nnn(C)c4c3)sc2c(-c2ccc(Cl)cc2)c1[C@H](OC(C)(C)C)C(=O)O` [Compound 316, (S)-2-tert-butoxy-2-(7-(4-chlorophenyl)-5-methyl-2-(1-methyl-1H-benzo[d][1,2,3]triazol-6-yl)benzo[d]thiazol-6-yl)acetic acid], with 18 nM; and `Cc1cc2nc(-c3ccn4c(C)nnc4c3)sc2c(-c2ccc(Cl)cc2)c1[C@H](OC(C)(C)C)C(=O)O` [Compound 317, (S)-2-tert-butoxy-2-(7-(4-chlorophenyl)-5-methyl-2-(3-methyl-[1,2,4]triazolo[4,3-a]pyridin-7-yl)benzo[d]thiazol-6-yl)acetic acid], with 13 nM. The same measure, in the same setting: for `Cc1cc2nc(-c3ccn4nnc(C)c4c3)sc2c(-c2ccc(Cl)cc2)c1[C@H](OC(C)(C)C)C(=O)O` [Compound 318, (S)-2-tert-butoxy-2-(7-(4-chlorophenyl)-5-methyl-2-(3-methyl-[1,2,3]triazolo[1,5-a]pyridin-5-yl)benzo[d]thiazol-6-yl)acetic acid] the value was 10 nM. For the compound `Cc1cc2nc(-c3ccn4c(C)nc(C)c4c3)sc2c(-c2ccc(Cl)cc2)c1[C@H](OC(C)(C)C)C(=O)O` [Compound 319, (S)-2-tert-butoxy-2-(7-(4-chlorophenyl)-2-(1,3-dimethylimidazo[1,5-a]pyridin-7-yl)-5-methylbenzo[d]thiazol-6-yl)acetic acid], the EC50 under setting [1] came out at 5 nM.

`Cc1cc2nc(N3CCOC(C)(c4ccc(Cl)cc4)C3)sc2c(-c2ccc(Cl)cc2)c1[C@H](OC(C)(C)C)C(=O)O` (stereo partly drawn) [Compound 322, (2S)-2-tert-butoxy-2-(7-(4-chlorophenyl)-2-(2-(4-chlorophenyl)-2-methylmorpholino)-5-methylbenzo[d]thiazol-6-yl)acetic acid]: the EC50 under setting [1] came to 640 nM. On the same count and under the same terms, for `Cc1ccc(C2(C)CN(c3nc4cc(C)c([C@H](OC(C)(C)C)C(=O)O)c(-c5ccc(Cl)cc5)c4s3)CCO2)cc1` (stereo partly drawn) [Compound 323, (2S)-2-tert-butoxy-2-(7-(4-chlorophenyl)-5-methyl-2-(2-methyl-2-p-tolylmorpholino)benzo[d]thiazol-6-yl)acetic acid] the value was 384 nM. Still for that read-out and setting: then `Cc1cc2nc(N3CCOC(c4ccc5c(cnn5C)c4)C3)sc2c(-c2ccc(Cl)cc2)c1[C@H](OC(C)(C)C)C(=O)O` (stereo partly drawn) [Compound 324, (2S)-2-tert-butoxy-2-(7-(4-chlorophenyl)-5-methyl-2-(2-(1-methyl-1H-indazol-5-yl)morpholino)benzo[d]thiazol-6-yl)acetic acid], with 13 nM.

In the case of `Cc1cc2nc(N3CCO[C@H](c4ccc5c(cnn5C)c4)C3)sc2c(-c2ccc(Cl)cc2)c1[C@H](OC(C)(C)C)C(=O)O` [Compound 325, (S)-2-tert-butoxy-2-(7-(4-chlorophenyl)-5-methyl-2-((R)-2-(1-methyl-1H-indazol-5-yl)morpholino)benzo[d]thiazol-6-yl)acetic acid], under setting [1], the EC50 turned out to be 10 nM. The same measure, in the same setting: for `Cc1cc2nc(N3CCO[C@@H](c4ccc5c(cnn5C)c4)C3)sc2c(-c2ccc(Cl)cc2)c1[C@H](OC(C)(C)C)C(=O)O` [Compound 326, (S)-2-tert-butoxy-2-(7-(4-chlorophenyl)-5-methyl-2-((S)-2-(1-methyl-1H-indazol-5-yl)morpholino)benzo[d]thiazol-6-yl)acetic acid] the value was 66 nM. Turning to `Cc1cc2nc(N3CCOC(c4ccccc4)C3)sc2c(-c2ccc(Cl)cc2)c1[C@H](OC(C)(C)C)C(=O)O` (stereo partly drawn) [Compound 327, (2S)-2-tert-butoxy-2-(7-(4-chlorophenyl)-5-methyl-2-(2-phenylmorpholino)benzo[d]thiazol-6-yl)acetic acid], a half-maximal effect (EC50) was put at 162 nM. Consider `Cc1cc2nc(-c3ccc4nn(C5COC5)cc4c3)sc2c(-c2ccc(Cl)cc2)c1[C@H](OC(C)(C)C)C(=O)O` [Compound 328, (S)-2-tert-butoxy-2-(7-(4-chlorophenyl)-5-methyl-2-(2-(oxetan-3-yl)-2H-indazol-5-yl)benzo[d]thiazol-6-yl)acetic acid], for which the EC50 under setting [1] turned out to be 44 nM.

For `Cc1cc2nc(-c3ccc4c(cnn4C4COC4)c3)sc2c(-c2ccc(Cl)cc2)c1[C@H](OC(C)(C)C)C(=O)O` [Compound 329, (S)-2-tert-butoxy-2-(7-(4-chlorophenyl)-5-methyl-2-(1-(oxetan-3-yl)-1H-indazol-5-yl)benzo[d]thiazol-6-yl)acetic acid], the EC50 under setting [1] came out at 14 nM. Same read-out and setting: for `Cc1cc2nc(-c3ccc4c(c3)c(C(C)C)nn4C)sc2c(-c2ccc(Cl)cc2)c1[C@H](OC(C)(C)C)C(=O)O` [Compound 330, (S)-2-tert-butoxy-2-(7-(4-chlorophenyl)-2-(3-isopropyl-1-methyl-1H-indazol-5-yl)-5-methylbenzo[d]thiazol-6-yl)acetic acid] the value was 19 nM; for `COc1ccc(-c2cc(-c3nc4cc(C)c([C@H](OC(C)(C)C)C(=O)O)c(-c5ccc(Cl)cc5)c4s3)c(C)nn2)cc1OC` [Compound 331], 44 nM; for `Cc1cc2nc(-c3ccnc(N4CCC(C)(O)CC4)n3)sc2c(-c2ccc(Cl)cc2)c1[C@H](OC(C)(C)C)C(=O)O` [Compound 332], 5 nM. Consider `Cc1cc2nc(-c3ccnc(N4CCC(N(C)C)CC4)n3)sc2c(-c2ccc(Cl)cc2)c1[C@H](OC(C)(C)C)C(=O)O` [Compound 334], for which the EC50 under setting [1] came out at 5 nM. On the same count and under the same terms, then `Cc1cc2nc(-c3cc(-c4ccc5c(cnn5C)c4)nnc3C)sc2c(-c2ccc(Cl)cc2)c1[C@H](OC(C)(C)C)C(=O)O` [Compound 335], with 14 nM. On the same count and under the same terms, for `Cc1cc2nc(-c3ccnc(N4CCN(C)C[C@@H]4C)n3)sc2c(-c2ccc(Cl)cc2)c1[C@H](OC(C)(C)C)C(=O)O` [Compound 337] the value was 4 nM.

As for `COc1ccc(-c2cc(-c3nc4cc(C)c([C@H](OC(C)(C)C)C(=O)O)c(-c5ccc(Cl)cc5)c4s3)cnn2)cc1OC` [Compound 338], the EC50 under setting [1] worked out at 11 nM. Same read-out and setting: then `Cc1cc2nc(-c3ccnc(N4CCN(C5CC5)CC4)n3)sc2c(-c2ccc(Cl)cc2)c1[C@H](OC(C)(C)C)C(=O)O` [Compound 339], with 11 nM. On the same count and under the same terms, for `Cc1cc2nc(-c3ccnc(C4CCOCC4)n3)sc2c(-c2ccc(Cl)cc2)c1[C@H](OC(C)(C)C)C(=O)O` [Compound 340] the value was 9 nM; for `Cc1cc2nc(-c3ccnc(C4=CCOCC4)n3)sc2c(-c2ccc(Cl)cc2)c1[C@H](OC(C)(C)C)C(=O)O` [Compound 341], 14 nM; for `Cc1cc2nc(-c3ccnc(C4=CCN(C)CC4)n3)sc2c(-c2ccc(Cl)cc2)c1[C@H](OC(C)(C)C)C(=O)O` [Compound 342], 5 nM. As to `Cc1cc2nc(-c3ccnc(N4CCOCC4)n3)sc2c(-c2ccc(Cl)cc2)c1[C@H](OC(C)(C)C)C(=O)O` [Compound 343], the EC50 under setting [1] stood at 26 nM.
